Data: patent US12065442B2, “Tropomyosin receptor kinase (TRK) degradation compounds and methods of use” (Cullgen (Shanghai), Inc., priority 2018, dated 2024)
Entries after “also recorded” stand apart in the source; their conditions may differ. Where two headings read alike, the source gives them in different places.

Assays:
KM12 cells = assay: Cell viability assay (CellTiter-Glo) in KM12 cells; format: cell-based; settings: for IC50: Homo sapiens, 72 h, KM12 cell viability, CellTiter-Glo, 3 days, read-out: IC50
TPM3-TRKA fusion protein [1] = target: T1, TPM3-TRKA fusion protein (Homo sapiens, UniProt P04629+P06753+Q96SW2); assay: Immunoblotting of TPM3-TRKA fusion protein in KM12 cells; format: cell-based; set-up: The resulted chimeric proteins always retain the kinase domain of TRK proteins; TPM3 (N-terminal fusion partner, natural gene fusion); endogenous in cells; host or cells: KM12 colon cancer cells; settings: for time after adding compound at which significant degradation of TPM3-TRKA was detected: 100 nM (FIG. 2); for TPM3-TRKA protein levels / TPM3-TRKA protein levels, time course: 100 nM; for TPM3-TRKA protein levels: 16 hours (FIG. 1A-1C); for TPM3-TRKA protein levels, time course: indicated incubation time (FIG. 2)
Method: Specific exemplary bivalent compounds were characterized in KM12 cells. […] Cells were collected, lysed and subject to immunoblotting using an antibody specific to TRK proteins. GAPDH was included as the loading control. DMSO was used as the negative control.
KM12 cells were treated with DMSO or indicated compounds at 100 nM for 16 hours.
KM12 cells were treated with CPD-027, CPD-053, and CPD-060 at 100 nM for indicated incubation time. […]
KM12 or HEL cells were treated with a dose range of compound TR-123 or TR-123-negative. The latter lost binding to cereblon (CRBN) due to a chemical modification.
KM12 or HEL cells were treated with a single dose of compound TR-123 or combination with MG-132, Bortezomib, MLN4924 or Pomalidomide. […]
(§1) Cultured cells were washed with cold PBS once and lysed in cold RIPA buffer supplemented with protease inhibitors and phosphatase inhibitors (Beyotime Biotechnology). The solutions were then incubated at 4° C. for 30 minutes with gentle agitation to fully lyse cells. For tumor tissues, tumors were cut into small pieces, milled with cold RIPA buffer using a mechanical homogenizer and lysed for 1 hour at 4° C. Cell lysates were centrifuged at 13,000 rpm for 10 minutes at 4° C. and pellets were discarded. Total protein concentrations in the lysates were determined by BCA assays (Beyotime Biotechnology). Cell lysates were mixed with Laemmli loading buffer to 1× and heated at 99° C. for 5 min. Proteins were resolved on SDS-PAGE and visualized by chemiluminescence. Images were taken by a ChemiDoc MP Imaging system (Bio-Rad). Protein bands were quantitated using the software provided by Bio-Rad.

KRAS-mutant H358 cells = assay: Cell viability assay (CellTiter-Glo) in H358 cells; format: cell-based; settings: 1000 nM, 8-point 3-fold serial dilution, 3 days (FIG. 4B)
Method: The kinase activity of TRK is known to play important roles in tumors expressing TRK-fusion proteins, as TRK kinase inhibitors compromise cell proliferation, survival, and induce marked clinical responses (Amatu et al., 2016; Drilon et al., 2018; Drilon et al., 2017; Khotskaya et al., 2017). […] Three days after treatment, cell viability was determined using the CellTiter-Glo kit following manufacturer's instructions. Cell viability was normalized to the mean values of 3 replicates of untreated cells. Dose-dependent response was analyzed following the least-squares non-linear regression method using the GraphPad Prism 5.0 software. Each data point in the figure represents the mean values of three technical replicates±standard deviation. […] More specifically, all bivalent compounds that had IC50 values smaller than 1000 nM in KM12 cells induced degradation of TPM3-TRKA (FIG. 1 and Table 2-4). […]
Cells were seeded at a density of 5000 cells per well in 96-well assay plates and treated with test compounds following a 12-point 2-fold serial dilution or a 8-point 3-fold dilution. Three days later, cell viability was determined using the CellTiter-Glo assay kit (Promega) according to the manufacturer's instructions. The dose-response curves were determined and IC50 values were calculated using the GraphPad Prism software following a nonlinear regression (least squares fit) method.

TPM3-TRKA fusion protein [2] = target: T1, TPM3-TRKA fusion protein; assay: Immunoblotting of TPM3-TRKA in KM12 subcutaneous xenograft tumors; format: in vivo, Athymic nude mice; set-up: The resulted chimeric proteins always retain the kinase domain of TRK proteins; TPM3 (N-terminal fusion partner, natural gene fusion); from tissue; host or cells: KM12 subcutaneous xenograft tumors in athymic nude mice; settings: 10, 20, or 50 mg/kg intraperitoneally, single dose, four hours after administration (FIG. 3)
Method: In addition to cultured cells, athymic nude mice bearing KM12 subcutaneous xenograft tumors at the right flank were intraperitoneally treated with 10, 20, or 50 mg/kg CPD-053, CPD-027, or CPD-060. Four hours after drug administration, animals were sacrificed for immunoblotting of TPM3-TPKA in homogenized xenograft tumor masses. The label “a” or “b” represents two different samples of the same xenograft tumor.
Athymic nude mice bearing KM12 subcutaneous xenograft tumors at the right flank were intraperitoneally treated with 10, 20, or 50 mg/kg CPD-053, CPD-027, or CPD-060, as indicated in FIG. 3. Four hours after drug administration, animals were sacrificed for immunoblotting of TPM3-TPKA in homogenized xenograft tumor chunks. The label “a” or “b” represents two different chunks of the same xenograft tumor.
Athymic nude mice bearing KM12 subcutaneous xenograft tumors at the right flank were intraperitoneally or orally treated with bivalent compounds at indicated dose. Eight hours after drug administration, animals were sacrificed for immunoblotting of TPM3-TPKA in homogenized xenograft tumor samples.
as §1
(§2) All animal experiments were performed under protocols approved by the Institutional Animal Care and Use Committee (IACUC) of Cullgen. Athymic nude mice (male, 5-weeks old) received 5 million KM12 cells subcutaneously inoculated at the right flank site. Ten days following inoculation, tumors were approximately 500 mm3 in size. Tumor-bearing mice were treated intraperitoneally with vehicle or bivalent compounds at indicated doses. Tumor sizes and body weight of mice were measured every 2 days. In addition, immunoblotting assays were employed to assess the levels of TRKA fusion proteins in xenograft tumors around 500 mm^3 in size following drug administration. At indicated hours after drug administration, selected mice were sacrificed, tumors were resected. Small chunks of tumors were homogenized for immunoblotting of TPM3-TPKA and other proteins as indicated.

[3] = Body weight of xenograft-bearing mice (toxicity); format: in vivo, Athymic nude mice
Method: (§3) Athymic nude mice bearing KM12 subcutaneous xenograft tumors at the right flank were intraperitoneally treated with vehicle or 25 mg/kg CPD-060 once per day (qd), twice per day (bid), or once every two days (q2d). Tumor volumes were assessed every two days and expressed as length×width×width/2. Body weights of experimental mice were also measured to assess the toxicity of compounds.
(§4) Athymic nude mice bearing KM12 subcutaneous xenograft tumors at the right flank were treated with vehicle, 10-20 mg/kg TR-181 or TR-198 once per day (qd), or twice per day (bid) via oral gavage. Tumor volumes were assessed every two days and expressed as length×width×width/2. Body weights of experimental mice were also measured to assess the toxicity of compounds.
as §2

[4] = tested on: KM12 subcutaneous xenograft tumors; assay: KM12 subcutaneous xenograft tumor growth study; format: in vivo, Athymic nude mice
Method: as §3, §4, §2

TRK-fusions = settings: cited from earlier work
[5] = Mouse pharmacokinetic (PK) studies; format: in vivo; settings: male, Swiss Albino, mouse, plasma; mice, 2 mg/kg intravenous injection and 20 mg/kg oral gavage, over 12 hours (FIG. 14)
Method: To investigate the pharmacokinetics of bi-functional compounds, exemplified by TR-123, a single 20 mg/kg intraperitoneal injection was evaluated. […] Additionally, doses of 2 mg/kg TR-198 via intravenous injection and 20 mg/kg TR-198 via oral gavage were evaluated in mice.
A single 20 mg/kg intraperitoneal injection of compound TR-123 was evaluated. Plasma concentrations of TR-123 reported at each of the 6 time points (30 min, 1 h, 2 h, 4 h, 8 h, and 12 h post compound administration) are the average values from 3 test animals.
A single 2 mg/kg intravenous injection and 20 mg/kg oral gavage of TR-198 were evaluated in mice.
Plasma concentrations of TR-198 reported at each of the 6 time points (5 min, 30 min, 2 h, 4 h, 8 h, and 12 h post compound administration via IV, 30 min, 1 h, 2 h, 4 h, 8 h, and 12 h post compound administration via p.o.) are the average values from 3 test animals.
Standard PK studies were conducted using male Swiss Albino mice by Sai Life Sciences. A single 20 mg/kg intraperitoneal (IP) injection of compound TR-123 was evaluated. Plasma concentrations of TR-123 reported at each of the 6 time points (30 min, 1 h, 2 h, 4 h, 8 h, and 12 h post dosing) are the average values from 3 test animals. Error bars represent+SD.

T1 sequence (P06753+P04629 fused): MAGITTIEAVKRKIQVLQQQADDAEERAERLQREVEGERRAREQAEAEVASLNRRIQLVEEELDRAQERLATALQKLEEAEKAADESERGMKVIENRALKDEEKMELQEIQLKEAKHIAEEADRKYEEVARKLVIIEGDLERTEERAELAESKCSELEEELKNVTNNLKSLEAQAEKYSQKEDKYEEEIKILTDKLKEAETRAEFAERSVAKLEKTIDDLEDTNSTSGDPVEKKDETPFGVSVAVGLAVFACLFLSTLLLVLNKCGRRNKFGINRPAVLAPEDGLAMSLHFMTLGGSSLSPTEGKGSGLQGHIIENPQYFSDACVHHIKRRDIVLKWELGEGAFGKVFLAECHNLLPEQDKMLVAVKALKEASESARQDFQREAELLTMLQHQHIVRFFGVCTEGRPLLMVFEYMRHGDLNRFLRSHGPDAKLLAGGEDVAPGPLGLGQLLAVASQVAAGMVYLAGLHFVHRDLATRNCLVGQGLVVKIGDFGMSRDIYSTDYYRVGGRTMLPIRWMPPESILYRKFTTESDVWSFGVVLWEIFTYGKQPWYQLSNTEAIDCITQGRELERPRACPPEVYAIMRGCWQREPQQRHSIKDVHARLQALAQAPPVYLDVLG
T1 sequence (Q96SW2 whole entry, the tested form may be a part): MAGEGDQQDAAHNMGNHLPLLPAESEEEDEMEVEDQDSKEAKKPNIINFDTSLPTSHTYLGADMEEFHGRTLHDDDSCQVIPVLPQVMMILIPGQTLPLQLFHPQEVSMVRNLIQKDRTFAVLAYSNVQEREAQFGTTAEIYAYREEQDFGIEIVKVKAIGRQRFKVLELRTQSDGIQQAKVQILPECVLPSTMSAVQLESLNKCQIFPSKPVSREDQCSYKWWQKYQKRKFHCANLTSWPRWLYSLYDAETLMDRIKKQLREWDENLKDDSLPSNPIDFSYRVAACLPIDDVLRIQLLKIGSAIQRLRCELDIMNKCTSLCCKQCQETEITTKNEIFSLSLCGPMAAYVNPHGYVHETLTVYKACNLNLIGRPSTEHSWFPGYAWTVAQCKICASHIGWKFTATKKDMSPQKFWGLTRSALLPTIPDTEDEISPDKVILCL
T1 sequence (Q16531 whole entry partner, the tested form may be a part): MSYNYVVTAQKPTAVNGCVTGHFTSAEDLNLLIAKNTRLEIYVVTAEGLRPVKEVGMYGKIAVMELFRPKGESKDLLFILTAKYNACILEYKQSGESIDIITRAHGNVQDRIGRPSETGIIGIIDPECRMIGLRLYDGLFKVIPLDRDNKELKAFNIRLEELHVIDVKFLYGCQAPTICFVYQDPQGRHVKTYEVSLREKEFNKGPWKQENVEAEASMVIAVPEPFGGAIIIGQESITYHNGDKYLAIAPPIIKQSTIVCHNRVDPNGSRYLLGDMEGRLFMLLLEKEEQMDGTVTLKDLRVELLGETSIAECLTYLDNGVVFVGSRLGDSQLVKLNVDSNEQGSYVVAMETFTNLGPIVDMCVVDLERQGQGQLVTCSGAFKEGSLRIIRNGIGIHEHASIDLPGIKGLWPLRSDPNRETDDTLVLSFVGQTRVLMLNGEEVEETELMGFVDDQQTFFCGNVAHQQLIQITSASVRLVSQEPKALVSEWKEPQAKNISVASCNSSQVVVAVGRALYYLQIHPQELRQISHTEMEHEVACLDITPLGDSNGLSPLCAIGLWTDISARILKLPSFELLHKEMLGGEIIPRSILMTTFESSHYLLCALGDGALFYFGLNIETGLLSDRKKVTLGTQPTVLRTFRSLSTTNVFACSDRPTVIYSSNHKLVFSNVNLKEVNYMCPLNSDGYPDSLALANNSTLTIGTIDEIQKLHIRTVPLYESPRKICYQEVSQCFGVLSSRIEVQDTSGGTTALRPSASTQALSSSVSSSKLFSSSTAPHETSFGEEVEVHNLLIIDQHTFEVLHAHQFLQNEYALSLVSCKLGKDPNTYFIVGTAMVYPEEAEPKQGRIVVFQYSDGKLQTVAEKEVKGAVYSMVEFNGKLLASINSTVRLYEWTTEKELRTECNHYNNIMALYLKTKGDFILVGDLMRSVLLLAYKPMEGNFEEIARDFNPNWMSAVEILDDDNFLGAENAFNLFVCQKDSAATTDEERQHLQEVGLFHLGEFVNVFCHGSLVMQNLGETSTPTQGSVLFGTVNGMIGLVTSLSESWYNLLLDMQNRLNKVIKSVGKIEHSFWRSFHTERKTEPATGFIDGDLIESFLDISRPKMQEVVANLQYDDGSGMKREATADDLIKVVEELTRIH

| Structure (SMILES) | IC50 (KM12 cells; Table 2) | time after adding compound at which significant degradation of TPM3-TRKA was detected (TPM3-TRKA fusion protein [1]) | TPM3-TRKA protein levels (TPM3-TRKA fusion protein [1]) | TPM3-TRKA protein levels, time course (TPM3-TRKA fusion protein [1]) | TPM3-TRKA protein levels in KM12 subcutaneous xenograft tumors (TPM3-TRKA fusion protein [2]) | IC50 (KM12 cells; Table 3) | other results |
| --- | --- | --- | --- | --- | --- | --- | --- |
| O=C1CCC(N2C(=O)c3cccc(NCCCC(=O)N4CCN(c5ccc(C(=O)Nc6n[nH]c7ccc(Cc8cc(F)cc(F)c8)cc67)c(NC6CCOCC6)c5)CC4)c3C2=O)C(=O)N1 (stereo not shown) [CPD-053, N-(5-(3,5-Difluorobenzyl)-1H-indazol-3-yl)-4-(4-(4-((2-(2,6-dioxopiperidin-3-yl)-1,3-dioxoisoindolin-4-yl)amino)butanoyl)piperazin-1-yl)-2-((tetrahydro-2H-pyran-4-yl)amino)benzamide] | 1.5 nM | 15 min | particularly effective in reducing TPM3-TRKA protein levels | rapidly reduced TPM3-TRKA protein levels | significantly reducing TPM3-TRKA protein levels | – | viability of KM12 cells (KM12 cells; 500 nM, 12-point 2-fold serial dilution, 3 days (FIG. 4A)): inhibited the viability; also recorded: dose-dependently suppressed viability; viability of KM12 cells (KM12 cells; 1000 nM, 8-point 3-fold serial dilution, 3 days (FIG. 4B)): significantly inhibited the viability; viability of H358 cells (KRAS-mutant H358 cells): did not affect cell viability |
| O=C(CN1CCN(c2cccc(-c3cnc4ccc(N5CCC[C@@H]5c5cccc(F)c5)nn34)n2)CC1)NCCNc1cccc2c1C(=O)N(C1CCC(=O)NC1=O)C2=O (stereo partly drawn) [CPD-060, N-(2-((2-(2,6-dioxopiperidin-3-yl)-1,3-dioxoisoindolin-4-yl)amino)ethyl)-2-(4-(6-(6-((R)-2-(3-fluorophenyl)pyrrolidin-1-yl)imidazo[1,2-b]pyridazin-3-yl)pyridin-2-yl)piperazin-1-yl)acetamide] | 6 nM | 15 min | particularly effective in reducing TPM3-TRKA protein levels | rapidly reduced TPM3-TRKA protein levels | significantly reducing TPM3-TRKA protein levels | – | body weight ([3]; 25 mg/kg intraperitoneally qd, bid or q2d (FIG. 12B)): without inducing substantial weight losses; growth of KM12 subcutaneous xenograft tumors ([4]; 25 mg/kg intraperitoneally qd, bid or q2d (FIG. 12A)): significantly repressed the growth |
| O=C(Nc1cnn2ccc(N3CCC[C@@H]3c3cc(F)ccc3F)nc12)N1CC[C@H](O)C1 [LOXO-101, larotrectinib] | – | – | – | – | – | 25 nM | patients who responded to the therapy (TRK-fusions; phase 2 (Drilon et al., 2018)): 75%; patients remaining progression-free (TRK-fusions; phase 2, at 1 year (Drilon et al., 2018)): 55% |
| O=C1CCC(N2C(=O)c3ccc(N4CC(CN5CCN(c6cccc(-c7cnc8ccc(N9CCC[C@@H]9c9cccc(F)c9)nn78)n6)CC5)C4)cc3C2=O)C(=O)N1 (stereo partly drawn) [TR-198, 2-(2,6-dioxopiperidin-3-yl)-5-(3-((4-(6-(6-((R)-2-(3-fluorophenyl)pyrrolidin-1-yl)imidazo[1,2-b]pyridazin-3-yl)pyridin-2-yl)piperazin-1-yl)methyl)azetidin-1-yl)isoindoline-1,3-dione] | – | – | – | – | – | 5.5 nM | body weight ([3]; 10-20 mg/kg qd or bid via oral gavage (FIG. 15B)): without inducing substantial weight losses; bioavailability [5]: ~16%; growth of KM12 subcutaneous xenograft tumors ([4]; 10-20 mg/kg qd or bid via oral gavage (FIG. 15A)): significant in vivo anti-tumor activity; also recorded: significantly repressed the growth |
